Columns and labels:
Format in all cases: biochemical
VEGFR2 = biological target: T1, VEGFR2 (Homo sapiens, UniProt P35968); experiment: Assay I: VEGFR2 kinase inhibition (HTRF KinEASE-TK); conditions: ATP 5 μM, substrate TK 1 μM
T1 construct: purchased Carna 08-191
Description: (§1) Assay I: Determination of Inhibitory Activity Against FGFR Mutants
(§2) 1. Reagents and Equipment
(§3) 2.1 Preparation of 1× Kinase Reaction Buffer:
(§4) 1× Kinase reaction buffer was formulated with 1× volume of 5× kinase reaction buffer and 4× volume of water; 5 mM MgCl2; and 1 mM DTT.
(§5) 2.3 Screening of Compounds:
(§6) 1. Diluting a compound 4-fold in a dilution plate with DMSO, with a starting compound concentration of 2 mM.
(§7) 2. Diluting the compound 40-fold into 1× kinase reaction buffer and shaking it on a shaker for 20 minutes.
3. Formulating 2×FGFR1 V561M/FGFR2 V564F/FGFR3 K650E/VEGFR2 with 1× of enzyme reaction buffer.
4. Adding 2 μl FGFR1 V561M/FGFR2 V564F/FGFR3 K650E/VEGFR2 kinase (formulated in step 3) to each well of the reaction plate.
(§8) 5. Adding 1 μl of the compound diluted in buffer to each well, sealing the plate with a sealing membrane and centrifuging the plate at 1000 g for 30 seconds and leaving it at room temperature for 10 minutes.
(§9) 6. Formulating 2.5×TK-substrate-biotin and ATP mixture with 1× enzyme reaction buffer and adding 2 μl of K-substrate-biotin/ATP mixture to the reaction plate.
(§10) 7. Sealing the plate with a sealing membrane and centrifuging the plate at 1000 g for 30 seconds and allowing it to react at room temperature for 50 minutes.
(§11) 8. Formulating 4× Sa-XL 665 (250 nM) with HTRF assay buffer.
(§12) 9. Adding 5 μl Sa-XL 665 and 5 μl TK-Antibody-Cryptate to each well, centrifuging it at 1000 g for 30 seconds, and allowing it to react for 1 hour at room temperature.
(§13) 10. Reading fluorescence signals at 615 nm (Cryptate) and 665 nm (XL665) with Biotek.
(§14) 3.1 Calculation of the ratio for each well: the ratio was calculated as 665/615 nm.
(§15) 3.3 Calculation of IC50 and plotting of inhibition curves for the compounds.
(§16) The IC50 (half inhibition concentration) of a compound was obtained using the following non-linear fitting equation, wherein data analysis was performed using Graphpad 6.0 software.
(§17) Y=Bottom+(Top−Bottom)/(1+10^((Log IC50−X)*Hill Slope)) • X: log value of compound concentration; and Y: inhibition rate (% inh)
(§18) 3.4 Validation of Results
(§19) Data were exported from Envision and analyzed manually. The ratios were converted to inhibition rates and IC50 was calculated by Prism GraphPad 6.0 from the inhibition rates. IC50 was calculated again by the ratios to verify accuracy of the results.
Positive control IC50 was within 3 times of the average value

FGFR2 V564F = biological target: T2, FGFR2 V564F (Homo sapiens, UniProt P21802, V564F); experiment: Assay I: inhibitory activity against FGFR mutants (HTRF KinEASE-TK); conditions: ATP 10 μM, substrate TK 1 μM
T2 construct: purchased Signalchem F05-12FG
T2 sequence (P21802 22-821 V564F): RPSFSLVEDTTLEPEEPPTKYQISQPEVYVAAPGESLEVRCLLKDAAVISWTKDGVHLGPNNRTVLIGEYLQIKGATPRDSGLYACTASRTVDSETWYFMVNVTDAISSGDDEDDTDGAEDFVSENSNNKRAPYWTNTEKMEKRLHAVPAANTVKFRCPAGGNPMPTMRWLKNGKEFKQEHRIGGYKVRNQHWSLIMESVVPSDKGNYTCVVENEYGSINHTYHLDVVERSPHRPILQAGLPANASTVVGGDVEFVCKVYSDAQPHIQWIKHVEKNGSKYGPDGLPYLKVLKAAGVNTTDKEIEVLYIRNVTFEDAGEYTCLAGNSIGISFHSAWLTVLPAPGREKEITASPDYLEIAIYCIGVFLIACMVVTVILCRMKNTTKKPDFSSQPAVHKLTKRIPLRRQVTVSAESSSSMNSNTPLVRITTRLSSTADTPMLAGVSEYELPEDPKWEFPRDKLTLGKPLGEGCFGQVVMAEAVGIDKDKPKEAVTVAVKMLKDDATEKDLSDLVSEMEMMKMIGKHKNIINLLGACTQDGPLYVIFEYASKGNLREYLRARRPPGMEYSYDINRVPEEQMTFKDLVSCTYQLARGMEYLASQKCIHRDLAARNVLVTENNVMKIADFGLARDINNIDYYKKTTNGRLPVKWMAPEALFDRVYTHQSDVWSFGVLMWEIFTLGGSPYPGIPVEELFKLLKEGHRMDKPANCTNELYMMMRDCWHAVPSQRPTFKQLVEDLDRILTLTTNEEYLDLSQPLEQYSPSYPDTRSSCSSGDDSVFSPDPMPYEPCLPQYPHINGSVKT
Description: as §1, §2, §3, §4, §5, §6, §7, §8, §9, §10, §11, §12, §13, §14, §15, §16, §17, §18, §19

FGFR3 V555M = biological target: T3, FGFR3 V555M (Homo sapiens, UniProt P22607, V555M); experiment: as above; conditions: ATP 20 μM, substrate TK 1 μM
T3 construct: purchased Signalchem F06-12GG
T3 sequence (P22607 397-806 V555M limits assumed): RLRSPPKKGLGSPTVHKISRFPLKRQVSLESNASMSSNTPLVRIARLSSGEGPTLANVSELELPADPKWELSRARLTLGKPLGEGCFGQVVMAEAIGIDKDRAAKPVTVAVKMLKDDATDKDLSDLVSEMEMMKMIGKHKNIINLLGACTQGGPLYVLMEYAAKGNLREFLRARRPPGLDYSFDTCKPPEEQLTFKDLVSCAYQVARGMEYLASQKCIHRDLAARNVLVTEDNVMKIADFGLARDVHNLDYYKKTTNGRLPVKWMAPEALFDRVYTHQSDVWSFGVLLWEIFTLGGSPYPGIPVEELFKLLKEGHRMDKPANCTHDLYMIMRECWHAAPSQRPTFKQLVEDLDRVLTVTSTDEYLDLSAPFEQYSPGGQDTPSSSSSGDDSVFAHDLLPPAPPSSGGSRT
Description: as §1, §2, §3, §4, §5, §6, §7, §8, §9, §10, §11, §12, §13, §14, §15, §16, §17, §18, §19

FGFR1 V561M = biological target: T4, FGFR1 V561M (Homo sapiens, UniProt P11362, V561M); experiment: as above; conditions: ATP 5 μM, substrate TK 1 μM
T4 construct: purchased Signalchem F04-13G
T4 sequence (P11362 22-822 V561M): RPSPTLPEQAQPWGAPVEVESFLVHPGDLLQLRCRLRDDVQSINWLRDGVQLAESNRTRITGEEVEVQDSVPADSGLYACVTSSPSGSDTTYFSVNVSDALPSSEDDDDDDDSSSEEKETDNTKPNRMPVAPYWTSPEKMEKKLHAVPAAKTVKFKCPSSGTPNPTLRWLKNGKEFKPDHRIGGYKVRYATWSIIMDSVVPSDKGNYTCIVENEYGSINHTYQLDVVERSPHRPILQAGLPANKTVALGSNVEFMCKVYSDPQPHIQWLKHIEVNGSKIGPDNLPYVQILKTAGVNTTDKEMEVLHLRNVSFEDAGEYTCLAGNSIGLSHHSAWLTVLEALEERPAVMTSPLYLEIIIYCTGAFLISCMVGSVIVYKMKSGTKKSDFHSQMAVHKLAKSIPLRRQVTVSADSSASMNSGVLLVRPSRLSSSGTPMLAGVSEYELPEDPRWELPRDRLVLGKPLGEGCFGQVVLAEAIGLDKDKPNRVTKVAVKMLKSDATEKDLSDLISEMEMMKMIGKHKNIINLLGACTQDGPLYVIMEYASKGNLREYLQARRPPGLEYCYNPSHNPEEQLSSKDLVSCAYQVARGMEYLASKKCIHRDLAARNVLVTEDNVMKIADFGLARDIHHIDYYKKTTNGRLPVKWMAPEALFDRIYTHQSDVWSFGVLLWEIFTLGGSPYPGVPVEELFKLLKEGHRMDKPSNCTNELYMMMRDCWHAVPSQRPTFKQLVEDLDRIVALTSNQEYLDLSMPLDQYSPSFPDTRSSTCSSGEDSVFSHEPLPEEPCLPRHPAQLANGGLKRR
Description: as §1, §2, §3, §4, §5, §6, §7, §8, §9, §10, §11, §12, §13, §14, §15, §16, §17, §18, §19

T1 sequence (P35968 20-1356): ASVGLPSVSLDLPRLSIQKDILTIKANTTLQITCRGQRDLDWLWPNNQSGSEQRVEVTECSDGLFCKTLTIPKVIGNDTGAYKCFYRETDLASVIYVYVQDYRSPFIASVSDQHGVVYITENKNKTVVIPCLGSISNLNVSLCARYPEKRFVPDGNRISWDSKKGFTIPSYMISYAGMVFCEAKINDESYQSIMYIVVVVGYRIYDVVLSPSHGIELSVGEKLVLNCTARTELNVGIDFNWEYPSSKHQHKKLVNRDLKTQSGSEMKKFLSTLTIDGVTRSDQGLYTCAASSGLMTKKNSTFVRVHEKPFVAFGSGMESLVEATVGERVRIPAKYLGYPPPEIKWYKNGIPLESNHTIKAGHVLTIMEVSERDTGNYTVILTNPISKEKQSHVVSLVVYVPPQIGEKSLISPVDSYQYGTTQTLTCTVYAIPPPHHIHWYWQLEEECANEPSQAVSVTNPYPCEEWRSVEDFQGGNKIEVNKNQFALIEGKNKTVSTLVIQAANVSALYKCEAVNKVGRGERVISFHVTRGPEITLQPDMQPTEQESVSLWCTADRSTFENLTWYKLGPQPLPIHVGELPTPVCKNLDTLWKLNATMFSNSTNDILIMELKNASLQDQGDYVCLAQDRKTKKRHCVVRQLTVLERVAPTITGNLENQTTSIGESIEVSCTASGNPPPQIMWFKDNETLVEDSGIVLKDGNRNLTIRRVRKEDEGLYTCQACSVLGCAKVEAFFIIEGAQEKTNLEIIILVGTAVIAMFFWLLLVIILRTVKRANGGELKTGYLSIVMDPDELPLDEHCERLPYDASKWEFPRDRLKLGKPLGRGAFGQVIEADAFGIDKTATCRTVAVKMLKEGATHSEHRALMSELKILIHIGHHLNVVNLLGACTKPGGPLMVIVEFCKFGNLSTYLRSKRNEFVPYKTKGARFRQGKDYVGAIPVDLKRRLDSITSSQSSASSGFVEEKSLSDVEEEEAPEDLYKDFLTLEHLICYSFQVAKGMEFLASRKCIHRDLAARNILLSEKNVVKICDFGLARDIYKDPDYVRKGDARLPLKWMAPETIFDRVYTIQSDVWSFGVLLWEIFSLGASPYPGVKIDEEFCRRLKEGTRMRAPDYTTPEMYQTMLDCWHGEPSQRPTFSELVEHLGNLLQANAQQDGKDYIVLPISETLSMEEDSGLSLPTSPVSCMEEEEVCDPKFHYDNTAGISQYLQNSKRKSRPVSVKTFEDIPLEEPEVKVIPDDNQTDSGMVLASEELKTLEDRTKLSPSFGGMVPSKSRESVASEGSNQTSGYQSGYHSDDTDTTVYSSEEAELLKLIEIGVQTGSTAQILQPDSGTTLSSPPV

SMILES	IC50 (VEGFR2) [nM]	IC50 (FGFR2 V564F) [nM]	IC50 (FGFR3 V555M) [nM]	IC50 (FGFR1 V561M) [nM]
CCOC(=O)N1Cc2nc(-c3n[nH]c4ccc(OC(C)c5c(Cl)cncc5Cl)cc34)[nH]c2C1 (stereo not shown) [Compound 23, Ethyl 2-(5-(1-(3,5-dichloropyridin-4-yl)ethoxy)-1H-indazol-3-yl)-4,6-dihydropyrrolo[3,4-d]imidazole-5(1H)-carboxylate]	85	0.48	1.3	1.2
CC(C1CCN(C)CC1)N1Cc2nc(-c3n[nH]c4ccc(O[C@H](C)c5c(Cl)cncc5Cl)cc34)[nH]c2C1 (stereo partly drawn) [Compound 37, 5-((R)-1-(3,5-Dichloropyridin-4-yl)ethoxy)-3-(5-(1-(1-methylpiperidin-4-yl)ethyl)-1,4,5,6-tetrahydropyrrolo[3,4-d]imidazol-2-yl)-1H-indazole]	49.3	0.68	0.58	3.9
CC(Oc1ccc2[nH]nc(-c3nc4c([nH]3)CN(C3CCC(O)CC3)C4)c2c1)c1c(Cl)cncc1Cl (stereo not shown) [Compound 22, 4-(2-(5-(1-(3,5-dichloropyridin-4-yl)ethoxy)-1H-indazol-3-yl)-4,6-dihydropyrrolo[3,4-d]imidazol-5(1H)-yl)cyclohexan-1-ol]	11.7	0.76	0.91	1.8
CC(Oc1ccc2[nH]nc(-c3nc4c([nH]3)CN(S(=O)(=O)C(C)C)C4)c2c1)c1c(Cl)cncc1Cl (stereo not shown) [Compound 30, 5-(1-(3,5-dichloropyridin-4-yl)ethoxy)-3-(5-(isopropylsulfonyl)-1,4,5,6-tetrahydropyrrolo[3,4-d]imidazol-2-yl)-1H-indazole]	96	0.3	0.6	0.4
C[C@@H](Oc1ccc2[nH]nc(-c3nc4c([nH]3)CN(C(=O)N(C)C)C4)c2c1)c1c(Cl)cncc1Cl [Compound 34, (R)-2-(5-(1-(3,5-dichloropyridin-4-yl)ethoxy)-1H-indazol-3-yl)-N,N-dimethyl-4,6-dihydropyrrolo[3,4-d]imidazole-5(1H)-carboxamide]	1.7	0.29	0.27	0.46
CC(Oc1ccc2[nH]nc(-c3nc4c([nH]3)CNC4)c2c1)c1c(Cl)cncc1Cl (stereo not shown) [Compound 19, 5-(1-(3,5-dichloropyridin-4-yl)ethoxy)-3-(1,4,5,6-tetrahydropyrrolo[3,4-d]imidazol-2-yl)-1H-indazole]	31	0.59	0.76	0.6
CC(Oc1ccc2[nH]nc(-c3nc4c([nH]3)CN(CCO)C4)c2c1)c1c(Cl)cncc1Cl (stereo not shown) [Compound 15, 2-(2-(5-(1-(3,5-dichloropyridin-4-yl)ethoxy)-1H-indazol-3-yl)-4,6-dihydropyrrolo[3,4-d]imidazol-5(1H)-yl)ethan-1-ol]	67	2	2	3.6
COC(=O)N1Cc2nc(-c3n[nH]c4ccc(OC(C)c5c(Cl)cncc5Cl)cc34)[nH]c2C1 (stereo not shown) [Compound 17, Methyl 2-(5-(1-(3,5-dichloropyridin-4-yl)ethoxy)-1H-indazol-3-yl)-4,6-dihydropyrrolo[3,4-d]imidazole-5(1H)-carboxylate]	49	0.74	0.21	1.2
C[C@@H](Oc1ccc2[nH]nc(-c3nc4c([nH]3)CN(C(=O)OCCN(C)C)C4)c2c1)c1c(Cl)cncc1Cl [Compound 54, 2-(dimethylamino)ethyl(R)-2-(5-(1-(3,5-dichloropyridin-4-yl)ethoxy)-1H-indazol-3-yl)-4,6-dihydropyrrolo[3,4-d]imidazole-5(1H)-carboxylate]	3.3	0.15	0.11	0.55
CCS(=O)(=O)N1Cc2nc(-c3n[nH]c4ccc(OC(C)c5c(Cl)cncc5Cl)cc34)[nH]c2C1 (stereo not shown) [Compound 28, 5-(1-(3,5-dichloropyridin-4-yl)ethoxy)-3-(5-(ethylsulfonyl)-1,4,5,6-tetrahydropyrrolo[3,4-d]imidazol-2-yl)-1H-indazole]	30	0.3	0.52	1.6

The remaining lines, values ahead:

IC50 (VEGFR2) [nM]	IC50 (FGFR2 V564F) [nM]	IC50 (FGFR3 V555M) [nM]	IC50 (FGFR1 V561M) [nM]	SMILES
8.4	0.21	0.35	1.2	C[C@@H](Oc1ccc2[nH]nc(-c3nc4c([nH]3)CN(C(=O)CN3CCCCC3)C4)c2c1)c1c(Cl)cncc1Cl [Compound 50, (R)-1-(2-(5-(1-(3,5-dichloropyridin-4-yl)ethoxy)-1H-indazol-3-yl)-4,6-dihydropyrrolo[3,4-d]imidazol-5(1H)-yl)-2-(piperidin-1-yl)ethan-1-one]
37.5	0.16	0.4	0.94	CC(Oc1ccc2[nH]nc(-c3nc4c([nH]3)CN(C(=O)CC#N)C4)c2c1)c1c(Cl)cncc1Cl (stereo not shown) [Compound 27, 3-(2-(5-(1-(3,5-dichloropyridin-4-yl)ethoxy)-1H-indazol-3-yl)-4,6-dihydropyrrolo[3,4-d]imidazol-5(1H)-yl)-3-oxopropionitrile]
14.2	0.21	0.16	0.74	C[C@@H](Oc1ccc2[nH]nc(-c3nc4c([nH]3)CN(C(=O)CN3CCC3)C4)c2c1)c1c(Cl)cncc1Cl [Compound 51, (R)-2-(Azetidin-1-yl)-1-(2-(5-(1-(3,5-dichloropyridin-4-yl)ethoxy)-1H-indazol-3-yl)-4,6-dihydropyrrolo[3,4-d]imidazol-5(1H)-yl)ethan-1-one]
2.5	0.21	0.14	0.29	C[C@@H](Oc1ccc2[nH]nc(-c3nc4c([nH]3)CN(C(=O)[C@@H]3CCCCN3C)C4)c2c1)c1c(Cl)cncc1Cl [Compound 47, (2-(5-((R)-1-(3,5-dichloropyridin-4-yl)ethoxy)-1H-indazol-3-yl)-4,6-dihydropyrrolo[3,4-d]imidazol-5(1H)-yl)((S)-1-methylpiperidin-2-yl)ketone]
7.1	0.17	0.13	0.38	CC(Oc1ccc2[nH]nc(-c3nc4c([nH]3)CN(C(=O)C3CC(O)C3)C4)c2c1)c1c(Cl)cncc1Cl (stereo not shown) [Compound 26, (2-(5-(1-(3,5-dichloropyridin-4-yl)ethoxy)-1H-indazol-3-yl)-4,6-dihydropyrrolo[3,4-d]imidazol-5(1H)-yl)(3-hydroxycyclobutyl)ketone]
14	0.15	0.1	0.67	CC(Oc1ccc2[nH]nc(-c3nc4c([nH]3)CN(C(=O)CN3CCC(O)C3)C4)c2c1)c1c(Cl)cncc1Cl (stereo not shown) [Compound 31, 1-(2-(5-(1-(3,5-dichloropyridin-4-yl)ethoxy)-1H-indazol-3-yl)-4,6-dihydropyrrolo[3,4-d]imidazol-5(1H)-yl)-2-(3-hydroxypyrrolidin-1-yl)ethan-1-one]
45.5	0.82	1.9	6.4	C[C@@H](Oc1ccc2[nH]nc(-c3nc4c([nH]3)CN(C(=O)CN3CC(F)C3)C4)c2c1)c1c(Cl)cncc1Cl [Compound 53, (R)-1-(2-(5-(1-(3,5-dichloropyridin-4-yl)ethoxy)-1H-indazol-3-yl)-4,6-dihydropyrrolo[3,4-d]imidazol-5(1H)-yl)-2-(3-fluoroazetidin-1-yl)ethan-1-one]
13.4	0.34	0.87	5.1	C[C@@H](Oc1ccc2[nH]nc(-c3nc4c([nH]3)CN(C(=O)OC3CCN(C)C3)C4)c2c1)c1c(Cl)cncc1Cl (stereo partly drawn) [Compound 55, 1-Methylpyrrolidin-3-yl 2-(5-((R)-1-(3,5-dichloropyridin-4-yl)ethoxy)-1H-indazol-3-yl)-4,6-dihydropyrrolo[3,4-d]imidazole-5(1H)-carboxylate]
5.3	0.32	0.43	0.82	C[C@@H](Oc1ccc2[nH]nc(-c3nc4c([nH]3)CN(C(=O)[C@@H]3CCCN3)C4)c2c1)c1c(Cl)cncc1Cl [Compound 44, 3-(5-(L-prolinyl)-1,4,5,6-tetrahydropyrrolo[3,4-d]imidazol-2-yl)-5-((R)-1-(3,5-dichloropyridin-4-yl)ethoxy)-1H-indazole]

From patent US20230374025A1, “FGFR INHIBITOR COMPOUND AND USE THEREOF” (SHENZHEN KANGSU PHARMACEUTICAL TECHNOLOGY CO., LTD., priority 2021, published 2023)
